Test results as given in patent US4205076A, “Lipogenesis inhibition by certain esters of substituted benzodioxincarboxylic acids” (Shell Oil Company, priority 1979, dated 1980).

Tested on: swine adipose tissue
Experiment: Inhibition of lipogenesis (incorporation of radioactive carbon from glucose-U-14C into lipid) in swine adipose tissue slices
Format: cell-based
Conditions: 100 micrograms per milliliter, 37° C., 2 hours, insulin, 5% DMSO, in triplicate
From the text: The manner in which they cause this effect is not known with certainty; it is believed that they interfere with the synthesis of fatty acids in the tissues. Their effectiveness for this purpose has been ascertained by immersing samples of swine adipose tissue in a liquid medium containing radioactive glucose and the test chemical for a period of time, then isolating the lipid from the treated tissue and determining the incorporation of the radioactive carbon into lipid by means of scintillation counting techniques. These tests were conducted in swine adipose tissues because in swine, the primary site of lipogenesis--i.e., fatty acid synthesis--appears to be adipose tissue.
Described in more detail, tests were conducted according to the following general procedure:
150 milligrams of slices of swine adipose tissue were incubated at 37° C. for 2 hours with shaking in 3 milliliters of Krebs-Ringer bicarbonate solution containing one-half the normal calcium ion concentration, 60 micromoles of glucose, 0.5 micro-Curie of glucose-U^14 C, and 300 microunits of insulin, and 5% dimethyl sulfoxide (DMSO). The test compounds were added as a solution or suspension in DMSO and were present at a concentration of 100 micrograms per milliliter of the incubation mixture.
The incubation was terminated by addition of 0.25 milliliter of 1 N sulfuric acid. The resulting mixture was extracted with a total of 25 milliliters of chloroform/methanol (2:1 v/v). The extracts were washed according to Folch et al. (J. Biol. Chem. 226, 497-509, (1957)), air dried, and counted in a liquid scintillation counter with 15 milliliters of counting fluid (two parts toluene containing 0.4% w/v New England Nuclear Omnifluor/1 part Triton X-100). The tests were conducted in triplicate and were accompanied by control tests in which all ingredients,proportions and conditions were the same except that no test compound was included. From the data obtained were calculated the percent inhibition of lipid synthesis by the test compounds in each case. The data obtained from the tests are set out in Table 1, as the percent inhibition of lipogenesis compared to the results obtained in the control tests wherein only the test compound was omitted.

Compound | Percent Inhibition (of lipogenesis compared to control) [%]
CCOC(=O)C1COc2ccc(C(C)=NOC)cc2O1 (stereo not drawn) [Compound 3, Ethyl 2,3-dihydro-7-(1-(methoxyimino)ethyl)-1,4-benzodioxin-2-carboxylate] | 52
CCOC(=O)C1COc2ccc(C(=O)c3ccccc3)cc2O1 (stereo not drawn) [Compound 5, Ethyl 7-benzoyl-2,3-dihydro-1,4-benzodioxin-2-carboxylate] | 69
Ethyl 2,3-dihydro-7(and 6)-(1-(hydroxyimino)ethyl)-1,4-benzodioxin-2-carboxylate [Compound 2] | 94
Ethyl 6(and 7)-(2'-methyl-4'-thiazolyl)-2,3-dihydro-1,4-benzodioxin-2-carboxylate [Compound 6] | 79
Ethyl 6(and 7)-(acetylamino)-2,3-dihydro-1,4-benzodioxin-2-carboxylate [Compound 4] | 96
Ethyl 7(and 6)-acetyl-2,3-dihydro-1,4-benzodioxin-2-carboxylate [Compound 1] | 89
